The record followed here is PMC9332833 (Cancers, 2022).

The structures appear in SMILES notation. Where two headings read alike, the source gives them in different places.

The subject of series [1] is K562-MDR1 cells. Briefly: P-glycoprotein (CD243)/propidium iodide flow cytometry. In kind it is cell-based, human. The following applies: 1 µM, 24 h; for Proportion of K562-MDR1 cells, mean value: DMSO control 33.6%; for viability at 1 µM: Homo sapiens, DMSO control 89.2%, read-out: Living cells (viability), mean value. How it is done:
BK124.1 or DMSO were added to cells and after 24 h incubation cells were harvested and stained with FITC Mouse Anti-Human P-glycoprotein (CD243) clone 17F9 (BD, Franklin Lakes, NJ, USA) or an appropriate isotype control. Propidium iodide was added to […]. Cells were analyzed on a BD FACSCalibur flow cytometer using CellQuest software (BD, Franklin Lakes, NJ, USA). […]
Flow cytometry analysis of CD243 (P-glycoprotein)
Cells were seeded at a concentration of 1-2 × 10^5 cells/mL in a 6- or 24-well plate. After 24 hours of pre-incubation, DMSO or test compounds in DMSO were added. The cells were then incubated for 24 hours. After this time, cells were harvested, washed with 0.5% BSA in PBS (Mg2+ and Ca2+ free), and labeled for 30 minutes on ice with FITC Mouse Anti-Human P-glycoprotein (CD243) clone 17F9 (BD, Franklin Lakes, NJ, USA) or an appropriate isotype control. Following incubation with the antibody, cells were stained with propidium iodide, washed with PBS and a nalyzed on a BD FACSCalibur flow cytometer using CellQuest software (BD, Franklin Lakes, NJ, USA). […]
(Flow cytometry measures light scatter and fluorescence of single cells or particles in a stream.)

The test system of series [2] is K562-MDR1 cells. Kind of series: MTT viability test, K562-MDR1. Format: cell-based, human. The following applies: for viability at 0.005 µM: 48 h, 0,005 µM; for IC50: MTT; for Cross-resistance of K562-MDR1 cells: MTT assay. An excerpt:
The K562-MDR1 cell line was developed using increasing concentrations of the commonly used antimitotic drug vincristine on a polyclonal K562 population, as described earlier. […] The DMSO concentration in the culture was 0.1%. The vincristine dose was doubled every 2–3 weeks (at least twice for each experiment) after the cells reached confluence. Cell’s viability was above 90%, as confirmed by Muse Cell Analyzer (Merck Millipore, Burlington, MA, USA). The final concentration of vincristine reached was 0.1 μM. The increase in the K562-MDR1 population was confirmed by flow cytometry and PCR.
(§1) Cells were seeded in 96-well plates; after 24 h, medium with the appropriate drug concentration was added to each well. After 48 h, Tetrazolium Bromide (Sigma-Aldrich, St. Louis, MO, USA) was added to each well for 2–3 h. After that, cells were lysed and formazan crystals were dissolved. Absorbance was read using an iMark Microplate absorbance reader (Bio-Rad, Hercules, CA, USA). Results were calculated relative to cells treated with DMSO only. […]
(§2) Cells were seeded in 96-well plates at 7 × 10^3 cells/well in 50 µL of complete medium (for K562 or K562-MDR1) or at 50 × 10^3 cells/well in 50 µL of complete medium (CD34+ cells). After 24 hours, 50 µL of medium with the appropriate drug concentration was added to each well. The final DMSO concentration per well was 1% for K562 and K562-MDR1 and 0.1% for CD34+ cells. After 48 hours, 20 µL of Tetrazolium Bromide (Sigma-Aldrich, St. Louis, MO, USA) at a concentration of 5 mg/mL was added to each well. Cells were incubated for 2-3 hours in a cell culture incubator, and then 10% SDS with 1% HCl was added to each well to lyse the cells and dissolve the formazan crystals. Plates were […]
In general terms: Formazan colour is commonly taken as a measure of viable cells.

Series [3] concerns K562 cells. Kind of series: MTT viability test, K562. Format: cell-based. The following applies: Homo sapiens; for viability at 0.005 µM: K562, 48 h, 0,005 µM; for IC50: K562. The procedure:
CML cell line K562 CCL-243™ (BCR-ABL^+) was purchased from the ATCC® (Manassas, VA, USA). Cells were grown in RPMI 1640 medium containing HEPES (Biowest, Nuaillé, France) with 2 mM GlutaMAX (Gibco, Grand Island, NY, USA), supplemented with 10% fetal bovine serum (Sigma-Aldrich, St. Louis, MO, USA) and […] (Gibco, Grand Island, NY, USA) and 0.1 µM Vincristine (for K562-MDR1).
as §1, §2

Series [4] can be described thus: Blood morphology in K562 xenograft mice. The following applies: 500 mg/kg IP daily 14 days, N=4.
Method: (§3) Eight-week-old female NOD.Cg-Prkdcscid Il2rgtm1Wjl/SzJ NSG mice (Jackson Laboratory, Bar Harbor, ME, USA) were injected subcutaneously into the dorsal fold with 1 × 10^6 K562 cells of the human chronic myeloid leukemia (CML) line in a final volume of 100 µL (0.5% of the mouse weight). On day 3 after cell administration, mice were randomly assigned to each group, and on days 4–17 of the experiment, the selected tested compounds and control solutions were administered intraperitoneally or orally. During the experiment, subcutaneous tumors and body weight were measured daily. Tumor growth during the experiment was measured with an electronic display caliper. The theoretical tumor volume [mm], was calculated according to the formula (a^2 × b) * 0.5, where a is the shorter tumor axis [mm] and b is the longer tumor axis [mm]. On day 26, the experiment was terminated: blood was collected and analyzed for cellular morphology and standard biochemistry metabolites. Tumors were weighed.
(§4) Control and treated mice were grouped according to the tested compounds and the scheme of their administrations (doses, administration frequencies, routes of administration) in the CML xenogeneic model obtained by subcutaneous transplantation of 1 × 10^6 cells of the human CML blast line K562 into mice NOD.Cg-Prkdcscid Il2rgtm1Wjl/SzJ (NSG).
(§5) Hydroxyurea K562 500 mg/kg, IP Aqua pro 1 x daily 8
The nature of series [5]: Body and organ weights in K562 xenograft mice.
Method: as §3, §4, §5
Series [6] relates to K562 cells. Kind of series: K562 xenogeneic mouse model, tumor growth. Format: in vivo, NSG mice. The procedure:
Statistical analysis was performed using GraphPad Prism version 9.1.0. All in vitro experiments were performed in at least triplicate biological replicates and statistical results are expressed as mean ± standard deviation (SD). Statistical data of animal experiments are expressed as mean ± standard error of the mean (SEM). For experiments involving patients, the normality of the distribution was checked using the Shapiro–Wilk test and the statistical analysis was performed using one-way ANOVA with Dunnett’s post-test * p < 0.05, ** […], *** 0.001 > p > 0.0001, **** p < 0.0001.
Table S3. […] Control and
IP, intraperitoneal administration; O, orally

The mark [7] stands for this setting: Homo sapiens, 48 h, 0,05 µM, 48 h, mean ± SD, read-out: Viability in relation to control.
The mark [8] stands for this setting: Homo sapiens, 48 h, mean ± SD, read-out: Viability in relation to control.
Where [9] appears, read: Homo sapiens, 48 h, 5 µM, 48 h, mean ± SD, read-out: Viability in relation to control.
[10] abbreviates: 48 h, mean ± SD, read-out: Viability in relation to control.
[11] abbreviates: mean ± SD, standard range 0.0-99.0.
Setting [12] is: 500 mg/kg IP daily 14 days, mean ± SD, N=4.

Regarding `CC(=O)O[C@H]1C(=O)[C@@]2(C)[C@H]([C@H](OC(=O)c3ccccc3)[C@]3(O)C[C@H](OC(=O)[C@H](O)[C@@H](NC(=O)c4ccccc4)c4ccccc4)C(C)=C1C3(C)C)[C@]1(OC(C)=O)CO[C@@H]1C[C@@H]2O` [paclitaxel], in the series on K562-MDR1 cells [1], the “Proportion of K562-MDR1 cells, mean value” came out at 33.7%. Besides, in the series with K562-MDR1 cells [1], the viability (as a rule, a read-out of living cells in per cent, often relative to untreated cells) at 1 µM was found to be 77.2%. The viability at 5 µM in the series on K562-MDR1 cells [2] (setting [7]) is 89.9%; with K562-MDR1 cells [2] (Homo sapiens, 48 h, 0,5 µM, 48 h, mean ± SD, read-out: Viability in relation to control) it was 48.4%; in the series on K562-MDR1 cells [2] (setting [9]), 44.3%. The values for the viability at 0.005 µM in the series on K562-MDR1 cells [2] (setting [8]) and in the series with K562 cells [3] (setting [10]) were 100% and 32.6%, respectively. In addition, it took 7 µM to reach half-maximal inhibition with K562-MDR1 cells [2] (Homo sapiens, 48 h) (IC50). Besides, the “Cross-resistance of K562-MDR1 cells” value in the series on K562-MDR1 cells [2] is on record as “confirmed”.

In the case of `CC[C@]1(O)C[C@H]2CN(CCc3c([nH]c4ccccc34)[C@@](C(=O)OC)(c3cc4c(cc3OC)N(C=O)[C@H]3[C@@](O)(C(=O)OC)[C@H](OC(C)=O)[C@]5(CC)C=CCN6CC[C@]43[C@@H]65)C2)C1` [vincristine], the “Proportion of K562-MDR1 cells, mean value” with K562-MDR1 cells [1] was 37.0%. Further, the viability at 1 µM worked out at 79.7% with K562-MDR1 cells [1]; 94.3% in the series with K562-MDR1 cells [2] (Homo sapiens, 48 h, 0,1 µM, 48 h, mean ± SD, read-out: Viability in relation to control); 32.4% in the series on K562-MDR1 cells [2] (Homo sapiens, 48 h, 1 µM, 48 h, mean ± SD, read-out: Viability in relation to control). Further, the viability at 0.001 µM amounted to 106% in the series on K562-MDR1 cells [2] (Homo sapiens, 48 h, 0,001 µM, 48 h, mean ± SD, read-out: Viability in relation to control) and 76.6% in the series on K562 cells [3] (K562, 48 h, 0,001 µM, 48 h, mean ± SD, read-out: Viability in relation to control). Further, the viability at 0.005 µM in the series with K562-MDR1 cells [2] (setting [8]) was 111%; in the series on K562 cells [3] (setting [10]), 32.6%. The IC50 (as a rule, the concentration that gives 50% inhibition) turned out to be 0.512 µM with K562-MDR1 cells [2] (Homo sapiens, 48 h) and 3 nM with K562 cells [3] (MTT assay).

In the case of `NC(=O)NO` [hydroxyurea, reference compound], in series [4] (setting [11]), the GRA is reported as 26.0±7.6%, the LYMP stood at 58.0±9.9% and the MON is reported as 16.0±3.8%. In series [4] (mean ± SD, standard range 1.1-18), this compound displayed an HGB of 13.1 ± 0.8 g/dL. Further, in series [4] (mean ± SD, standard range 3.0-15), the WBC is recorded as 8.1±4.3 103/μL. In series [4] (mean ± SD, standard range 4.6-7.3), the MPV was determined as 3.6±4.3 μm3. The RBC in series [4] (mean ± SD, standard range 5.0-12) is on record as 6.9±0.4 106/μL. In series [4] (mean ± SD, standard range 11.5-14.5), this compound registered an RDW of 17.3±0.6%. Besides, the MCH in series [4] (mean ± SD, standard range 12-24.5) came out at 18.9 ± 0.5 pg. For the same compound, the MCHC in series [4] (mean ± SD, standard range 21.6-42) amounted to 31.5 ± 0.3 g/dL. In series [4] (mean ± SD, standard range 36-52), this compound gave an HCT of 41.5±2.4%. Further, the PLT in series [4] (mean, standard range 140-600) is 1575.5 103/μL. For the same compound, in series [5] (setting [12]), the Brain weight was 0.46 ± 0.02 g, the Heart weight stood at 0.11 ± 0.03 g, the Kidneys weight was determined as 0.27 ± 0.04 g and the Liver weight turned out to be 1.16 ± 0.13 g. In series [5] (setting [12]), this compound returned a Lung weight of 0.25 ± 0.08 g and a Splean weight of 0.05 ± 0.01 g. Besides, the “Total body weight course” value in series [5] (doses as in Table S3, control mice gained mass in the last 5 days) is “began to lose large quantities of weight”. Further, the Tumor weights with K562 cells [6] (500 mg/kg IP daily 14 days, mean ± SD, N=4, tumor growth control 9.2±2.1) was 1.8 ± 0.9 g. The “Tumor growth versus control groups” value in the series with K562 cells [6] (BK124.1 20 or 30 mg/kg IP, imatinib 100 mg/kg orally, hydroxyurea 500 mg/kg IP, 1 x daily) is “effectively inhibited”.

Take `COc1cccc2c1C(=O)c1c(O)c3c(c(O)c1C2=O)C[C@@](O)(C(=O)CO)C[C@@H]3O[C@H]1C[C@H](N)[C@H](O)[C@H](C)O1` [doxorubicin]: the viability at 5 µM was determined as 101% in the series on K562-MDR1 cells [2] (setting [7]) and 45.1% in the series with K562-MDR1 cells [2] (setting [9]). Besides, the viability at 0.005 µM in the series with K562-MDR1 cells [2] (setting [8]) is 99.4%; with K562 cells [3] (setting [10]), 97.7%. The IC50 with K562-MDR1 cells [2] (Homo sapiens, 48 h) came to 7 µM; with K562 cells [3] (MTT, 48 h), 3700 nM. Also, the “Cross-resistance of K562-MDR1 cells” value in the series on K562-MDR1 cells [2] is “confirmed”.
